Measurements as given in paper PMC9133015 (Nature Communications, 2022).
“And” between values parts separate entries of the source, which are not always exact repeats. Identical values can stand only once.

Tests used:
Test in all cases: Kinase inhibitor specificity profiling (Reaction Biology Corporation)
Assay type in all cases: biochemical
Parameters in all cases: % Enzyme Activity (relative to DMSO controls): concentration or dose not given beside the values
[1] = molecular target: T1, panel of 370 protein kinases (Homo sapiens, UniProt P49674); settings: 2 h, kinase CK1epsilon; read-out: % Enzyme Activity (relative to DMSO controls)
T1 construct: purchased Reaction Biology Corporation (assay service)
T1 sequence (P49674 whole entry): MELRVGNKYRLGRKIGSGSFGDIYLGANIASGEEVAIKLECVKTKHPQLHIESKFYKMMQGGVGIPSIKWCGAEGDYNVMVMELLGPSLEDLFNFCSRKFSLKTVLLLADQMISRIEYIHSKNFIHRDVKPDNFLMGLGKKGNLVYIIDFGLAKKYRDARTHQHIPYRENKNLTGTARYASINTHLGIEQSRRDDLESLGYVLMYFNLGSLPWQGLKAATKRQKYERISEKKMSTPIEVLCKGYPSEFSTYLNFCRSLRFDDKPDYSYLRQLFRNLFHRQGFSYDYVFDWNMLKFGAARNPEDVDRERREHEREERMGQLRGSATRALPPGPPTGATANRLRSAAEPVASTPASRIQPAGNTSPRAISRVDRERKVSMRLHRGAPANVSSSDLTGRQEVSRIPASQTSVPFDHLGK

[2] = molecular target: T2, panel of 370 protein kinases (Homo sapiens, UniProt P17252); settings: 2 h, kinase PKCa; read-out: % Enzyme Activity (relative to DMSO controls)
T2 construct: purchased Reaction Biology Corporation (assay service)

[3] = molecular target: T3, panel of 370 protein kinases (Homo sapiens, UniProt Q96PF2); settings: 2 h, kinase TSSK2; read-out: % Enzyme Activity (relative to DMSO controls)
T3 construct: purchased Reaction Biology Corporation (assay service)
T3 sequence (Q96PF2 whole entry): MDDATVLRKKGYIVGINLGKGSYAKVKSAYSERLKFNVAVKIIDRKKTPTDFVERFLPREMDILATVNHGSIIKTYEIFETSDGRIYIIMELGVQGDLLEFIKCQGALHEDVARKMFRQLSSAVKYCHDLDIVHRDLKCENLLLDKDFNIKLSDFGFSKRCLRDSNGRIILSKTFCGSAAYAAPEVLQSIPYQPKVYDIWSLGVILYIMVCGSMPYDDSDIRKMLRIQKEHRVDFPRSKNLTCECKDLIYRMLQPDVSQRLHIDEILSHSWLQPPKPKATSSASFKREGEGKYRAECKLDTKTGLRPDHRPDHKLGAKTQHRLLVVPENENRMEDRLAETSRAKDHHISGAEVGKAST

[4] = molecular target: T4, panel of 370 protein kinases (Homo sapiens, UniProt Q9UHD2); settings: 2 h, kinase TBK1; read-out: % Enzyme Activity (relative to DMSO controls)
T4 construct: purchased Reaction Biology Corporation (assay service)

[5] = molecular target: T5, panel of 370 protein kinases (Homo sapiens, UniProt Q8TDC3); settings: 2 h, kinase BRSK1; read-out: % Enzyme Activity (relative to DMSO controls)
T5 construct: purchased Reaction Biology Corporation (assay service)

[6] = molecular target: T6, panel of 370 protein kinases (Homo sapiens, UniProt O60285); settings: kinase ARK5/NUAK1
T6 construct: purchased Reaction Biology Corporation (assay service)
T6 sequence (O60285 whole entry): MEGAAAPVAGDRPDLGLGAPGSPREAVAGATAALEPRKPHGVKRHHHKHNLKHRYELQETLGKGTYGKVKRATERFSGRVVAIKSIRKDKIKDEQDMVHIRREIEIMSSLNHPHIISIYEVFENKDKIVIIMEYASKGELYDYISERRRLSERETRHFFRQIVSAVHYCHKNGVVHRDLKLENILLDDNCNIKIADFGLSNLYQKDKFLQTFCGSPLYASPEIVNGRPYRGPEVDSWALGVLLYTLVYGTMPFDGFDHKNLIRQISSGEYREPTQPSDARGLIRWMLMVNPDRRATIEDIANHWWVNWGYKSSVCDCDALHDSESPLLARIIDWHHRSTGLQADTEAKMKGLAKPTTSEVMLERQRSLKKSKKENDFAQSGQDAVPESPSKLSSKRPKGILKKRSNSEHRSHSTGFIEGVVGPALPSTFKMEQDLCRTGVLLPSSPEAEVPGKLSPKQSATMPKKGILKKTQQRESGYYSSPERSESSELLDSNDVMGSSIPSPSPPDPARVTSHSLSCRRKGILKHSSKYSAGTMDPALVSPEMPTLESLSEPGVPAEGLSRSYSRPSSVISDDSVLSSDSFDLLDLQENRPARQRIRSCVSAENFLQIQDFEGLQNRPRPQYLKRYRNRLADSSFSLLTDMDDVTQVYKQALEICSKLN

[7] = molecular target: T7, panel of 370 protein kinases (Homo sapiens, UniProt Q16644); settings: 2 h, kinase MAPKAPK3; read-out: % Enzyme Activity (relative to DMSO controls)
T7 construct: purchased Reaction Biology Corporation (assay service)

[8] = molecular target: T8, panel of 370 protein kinases (Homo sapiens, UniProt Q02750); settings: 2 h, kinase MEK1; read-out: % Enzyme Activity (relative to DMSO controls)
T8 construct: purchased Reaction Biology Corporation (assay service)

[9] = molecular target: T9, panel of 370 protein kinases (Homo sapiens, UniProt P08069); settings: 2 h, kinase IGF1R; read-out: % Enzyme Activity (relative to DMSO controls)
T9 construct: purchased Reaction Biology Corporation (assay service)

[10] = molecular target: T10, panel of 370 protein kinases (Homo sapiens, UniProt O43293); settings: 2 h, kinase ZIPK/DAPK3; read-out: % Enzyme Activity (relative to DMSO controls)
T10 construct: purchased Reaction Biology Corporation (assay service)

[11] = molecular target: T11, panel of 370 protein kinases (Homo sapiens, UniProt O75716); settings: 2 h, kinase STK16; read-out: % Enzyme Activity (relative to DMSO controls)
T11 construct: purchased Reaction Biology Corporation (assay service)

[12] = molecular target: T12, panel of 370 protein kinases (Homo sapiens, UniProt P54753); settings: 2 h, kinase EPHB3; read-out: % Enzyme Activity (relative to DMSO controls)
T12 construct: purchased Reaction Biology Corporation (assay service)
T12 sequence (P54753 34-998): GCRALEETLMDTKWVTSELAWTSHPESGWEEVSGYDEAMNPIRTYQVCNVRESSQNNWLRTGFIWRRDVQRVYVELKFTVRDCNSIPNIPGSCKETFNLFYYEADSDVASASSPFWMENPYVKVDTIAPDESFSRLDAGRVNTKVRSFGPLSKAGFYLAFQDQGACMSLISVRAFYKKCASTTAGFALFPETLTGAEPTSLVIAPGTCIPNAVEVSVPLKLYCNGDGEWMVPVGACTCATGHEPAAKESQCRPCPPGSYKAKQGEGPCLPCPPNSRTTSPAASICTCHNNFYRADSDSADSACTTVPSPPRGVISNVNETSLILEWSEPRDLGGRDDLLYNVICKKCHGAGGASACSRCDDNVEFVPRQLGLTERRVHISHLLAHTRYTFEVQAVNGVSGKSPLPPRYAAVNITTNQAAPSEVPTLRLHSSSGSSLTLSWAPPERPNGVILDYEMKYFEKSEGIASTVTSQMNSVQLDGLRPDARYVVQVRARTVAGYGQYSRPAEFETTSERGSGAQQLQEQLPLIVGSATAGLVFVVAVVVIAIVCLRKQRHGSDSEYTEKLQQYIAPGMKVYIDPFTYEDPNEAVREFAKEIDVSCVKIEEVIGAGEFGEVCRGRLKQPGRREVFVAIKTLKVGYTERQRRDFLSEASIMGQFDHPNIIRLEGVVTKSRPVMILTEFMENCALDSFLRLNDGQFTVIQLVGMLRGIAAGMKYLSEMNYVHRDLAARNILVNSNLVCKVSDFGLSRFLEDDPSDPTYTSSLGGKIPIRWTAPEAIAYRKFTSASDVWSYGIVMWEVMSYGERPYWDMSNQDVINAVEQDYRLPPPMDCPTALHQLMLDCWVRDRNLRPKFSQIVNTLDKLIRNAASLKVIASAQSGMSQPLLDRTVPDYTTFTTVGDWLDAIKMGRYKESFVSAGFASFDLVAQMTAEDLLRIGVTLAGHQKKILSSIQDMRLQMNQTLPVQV

[13] = molecular target: T13, panel of 370 protein kinases (Homo sapiens, UniProt Q9NYL2); settings: 2 h, kinase ZAK/MLTK; read-out: % Enzyme Activity (relative to DMSO controls)
T13 construct: purchased Reaction Biology Corporation (assay service)

[14] = molecular target: T14, panel of 370 protein kinases (Homo sapiens, UniProt Q9BXA7); settings: 2 h, kinase STK22D/TSSK1; read-out: % Enzyme Activity (relative to DMSO controls)
T14 construct: purchased Reaction Biology Corporation (assay service)
T14 sequence (Q9BXA7 whole entry): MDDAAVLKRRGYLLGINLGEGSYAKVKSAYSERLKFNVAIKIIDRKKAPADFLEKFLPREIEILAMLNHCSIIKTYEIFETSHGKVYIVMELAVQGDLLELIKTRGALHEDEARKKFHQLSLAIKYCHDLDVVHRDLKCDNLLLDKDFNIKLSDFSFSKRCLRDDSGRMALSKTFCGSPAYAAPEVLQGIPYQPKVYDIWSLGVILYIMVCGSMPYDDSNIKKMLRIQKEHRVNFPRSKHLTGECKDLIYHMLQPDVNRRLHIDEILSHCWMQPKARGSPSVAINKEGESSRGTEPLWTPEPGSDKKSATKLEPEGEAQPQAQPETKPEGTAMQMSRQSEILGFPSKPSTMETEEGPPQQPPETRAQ

[15] = molecular target: T15, panel of 370 protein kinases (Homo sapiens, UniProt Q05655); settings: 2 h, kinase PKCd; read-out: % Enzyme Activity (relative to DMSO controls)
T15 construct: purchased Reaction Biology Corporation (assay service)

[16] = molecular target: T16, panel of 370 protein kinases (Homo sapiens, UniProt Q99683); settings: 2 h, kinase ASK1/MAP3K5; read-out: % Enzyme Activity (relative to DMSO controls)
T16 construct: purchased Reaction Biology Corporation (assay service)
T16 sequence (Q99683 whole entry): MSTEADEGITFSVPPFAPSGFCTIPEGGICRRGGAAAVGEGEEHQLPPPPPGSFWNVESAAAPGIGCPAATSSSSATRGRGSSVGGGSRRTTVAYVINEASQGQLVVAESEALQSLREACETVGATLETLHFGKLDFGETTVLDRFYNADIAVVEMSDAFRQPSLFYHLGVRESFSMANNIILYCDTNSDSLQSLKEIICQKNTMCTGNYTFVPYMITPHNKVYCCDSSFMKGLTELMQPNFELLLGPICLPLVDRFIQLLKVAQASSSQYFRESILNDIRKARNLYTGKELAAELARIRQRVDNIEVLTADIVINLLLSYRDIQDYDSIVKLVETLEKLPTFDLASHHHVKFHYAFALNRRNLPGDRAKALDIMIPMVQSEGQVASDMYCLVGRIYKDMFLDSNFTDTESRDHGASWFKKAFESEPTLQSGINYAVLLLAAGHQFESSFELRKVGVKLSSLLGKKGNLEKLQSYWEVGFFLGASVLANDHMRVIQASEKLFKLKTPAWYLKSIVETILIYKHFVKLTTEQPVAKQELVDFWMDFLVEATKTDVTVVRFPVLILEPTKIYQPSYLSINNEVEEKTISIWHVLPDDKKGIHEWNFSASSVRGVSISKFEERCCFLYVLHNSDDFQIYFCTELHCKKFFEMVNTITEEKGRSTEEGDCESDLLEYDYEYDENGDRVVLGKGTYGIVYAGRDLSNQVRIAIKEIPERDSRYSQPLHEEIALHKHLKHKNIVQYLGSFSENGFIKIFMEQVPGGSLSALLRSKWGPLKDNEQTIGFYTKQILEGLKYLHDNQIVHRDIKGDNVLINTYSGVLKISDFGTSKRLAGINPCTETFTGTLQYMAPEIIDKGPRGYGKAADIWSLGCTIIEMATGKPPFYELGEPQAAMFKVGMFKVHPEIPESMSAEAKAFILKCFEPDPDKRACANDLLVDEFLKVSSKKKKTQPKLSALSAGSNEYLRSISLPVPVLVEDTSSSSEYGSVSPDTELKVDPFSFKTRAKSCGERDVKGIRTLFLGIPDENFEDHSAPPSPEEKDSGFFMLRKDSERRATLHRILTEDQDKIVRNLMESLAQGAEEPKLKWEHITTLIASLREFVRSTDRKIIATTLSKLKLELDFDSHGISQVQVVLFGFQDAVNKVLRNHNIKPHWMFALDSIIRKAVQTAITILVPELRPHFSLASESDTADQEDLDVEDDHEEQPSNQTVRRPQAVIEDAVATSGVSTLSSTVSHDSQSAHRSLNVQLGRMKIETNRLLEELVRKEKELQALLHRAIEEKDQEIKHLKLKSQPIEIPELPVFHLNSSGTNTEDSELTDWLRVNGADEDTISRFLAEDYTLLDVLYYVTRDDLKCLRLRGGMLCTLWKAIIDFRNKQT

[17] = molecular target: T17, panel of 370 protein kinases (Homo sapiens, UniProt P06241); settings: 2 h, kinase FYN; read-out: % Enzyme Activity (relative to DMSO controls)
T17 construct: purchased Reaction Biology Corporation (assay service)

[18] = molecular target: T18, panel of 370 protein kinases (Homo sapiens, UniProt Q86YV6); settings: 2 h, kinase MYLK4; read-out: % Enzyme Activity (relative to DMSO controls)
T18 construct: purchased Reaction Biology Corporation (assay service)
T18 sequence (Q86YV6 whole entry): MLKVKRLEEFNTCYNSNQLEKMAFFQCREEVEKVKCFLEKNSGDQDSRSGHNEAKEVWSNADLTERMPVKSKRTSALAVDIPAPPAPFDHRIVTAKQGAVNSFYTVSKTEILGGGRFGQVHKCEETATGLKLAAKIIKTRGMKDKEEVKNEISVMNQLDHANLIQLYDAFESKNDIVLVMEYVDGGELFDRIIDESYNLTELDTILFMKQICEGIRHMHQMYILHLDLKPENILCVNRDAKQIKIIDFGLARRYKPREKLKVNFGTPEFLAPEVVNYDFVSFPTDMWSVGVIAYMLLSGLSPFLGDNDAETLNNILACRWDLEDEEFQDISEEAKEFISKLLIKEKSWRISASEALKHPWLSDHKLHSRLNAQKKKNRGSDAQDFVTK

[19] = molecular target: T19, panel of 370 protein kinases (Homo sapiens, UniProt O15530); settings: 2 h, kinase PDK1/PDPK1; read-out: % Enzyme Activity (relative to DMSO controls)
T19 construct: purchased Reaction Biology Corporation (assay service)

[20] = molecular target: T20, panel of 370 protein kinases (Homo sapiens, UniProt Q99759); settings: 2 h, kinase MEKK3; read-out: % Enzyme Activity (relative to DMSO controls)
T20 construct: purchased Reaction Biology Corporation (assay service)

[21] = molecular target: T21, panel of 370 protein kinases (Homo sapiens, UniProt Q9UIK4); settings: 2 h, kinase DAPK2; read-out: % Enzyme Activity (relative to DMSO controls)
T21 construct: purchased Reaction Biology Corporation (assay service)
T21 sequence (Q9UIK4 whole entry): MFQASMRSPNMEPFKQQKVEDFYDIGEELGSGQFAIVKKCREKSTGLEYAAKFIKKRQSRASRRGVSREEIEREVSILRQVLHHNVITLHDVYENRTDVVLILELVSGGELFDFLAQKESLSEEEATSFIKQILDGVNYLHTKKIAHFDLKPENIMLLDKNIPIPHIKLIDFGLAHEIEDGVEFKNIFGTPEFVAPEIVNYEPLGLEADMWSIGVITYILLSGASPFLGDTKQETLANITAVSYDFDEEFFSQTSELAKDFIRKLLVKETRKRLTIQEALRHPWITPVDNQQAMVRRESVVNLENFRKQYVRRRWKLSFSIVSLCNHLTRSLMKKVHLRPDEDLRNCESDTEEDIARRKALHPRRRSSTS

CCN1CCN(C(=O)c2ccc(Nc3ncc(F)c(-c4ccc5nc(N(C)C)sc5c4)n3)nc2)CC1 [YK-2-69]
remaining activity at 1 µM [1]: 111% | remaining activity at 1 µM [2]: 80% | remaining activity at 1 µM [3]: 96.7% | remaining activity at 1 µM [4]: 93.1% | remaining activity at 1 µM [5]: 94% | % Enzyme Activity (relative to DMSO controls) [6]: 87.08% and 86.46% | remaining activity at 1 µM [7]: 116% | remaining activity at 1 µM [8]: 100% | remaining activity at 1 µM [9]: 102% | remaining activity at 1 µM [10]: 67.1% | remaining activity at 1 µM [11]: 57.5% | remaining activity at 1 µM [12]: 112% | remaining activity at 1 µM [13]: 107% | remaining activity at 1 µM [14]: 91.2% | remaining activity at 1 µM [15]: 70.9% | remaining activity at 1 µM [16]: 106% | remaining activity at 1 µM [17]: 104% | remaining activity at 1 µM [18]: 44.6% | remaining activity at 1 µM [19]: 100% | remaining activity at 1 µM [20]: 106% | remaining activity at 1 µM [21]: 89.2%
